# In patent US20240041820A1, “SENOTHERAPEUTIC COMPOUND” (BIONEXA S.R.L., priority 2020, published 2024):
# Entries after “also recorded” stand apart in the source; their conditions may differ.
# Columns and labels:
# Assay type in all cases: cell-based
# [1] = test system: human WS1 fibroblast cells; assay: Senolytic activity on doxorubicin-induced senescent WS1 fibroblasts (crystal violet survival)
# Method: (§1) The successful conversion to the senescent cell phenotype was confirmed by morphological changes (flattening and cell enlargement) and positivity for lysosomal beta-galactosidase (β-GAL). The SA-β-GAL (senescence-associated β-GAL) senescence assay was performed with the SA-β-Gal Staining Kit (Cell Signaling Technology, Inc., Danvers, MA). Briefly, after fixation with […] for 15 min at room temperature, senescent cells were quantified by calculating the percentage of SA-β-GAL positive (blue stained) cells present in culture by examining 200 cells per well with the phase contrast microscope EVOS XL Cell Imaging System (Thermo Fisher; objective, 40X).
# Senolytic activity on senescent human cells (in 96-well plates) was evaluated after specific treatments (for 72 h), including vehicle (DMSO; negative control), quercetin (Que; positive control) or different compounds according to the ‘invention bearing identification codes as fully illustrated also in patent application WO 2019/008537 A1, filed on May 7, 2017 in the name of Vera Salus Ricerca SrI (FIGS. 1, 2 and 3) from page 91 to page 106 and in the relative Figures. At the end of the treatments, cell survival was quantified by crystal violet staining. Briefly, cells were fixed with paraformaldehyde (4%) in PBS for 20 min, washed (2X in distilled water) and stained with 1% crystal violet (for 20 min). After further washing with water (3X), 100 μl of acetic acid (10%) were added per well and the absorbance (λ=590 nm) measured with a Synergy spectrophotometer (AHSI). Each experiment was carried out in quadruplicate and repeated at least three times, on three different days. Senolytic activity was expressed as % of senescent cells eliminated with respect to the control condition (DMSO). Results were presented as means±SEM (standard error of mean) and related analyzes were performed with GraphPadPrism® 6.0 software (CA, USA).
# In a first step, the senolytic activities of the compounds according to the invention were investigated in human WS1 fibroblast cells (normal fibroblasts of cutaneous origin, ATCC® CRL-1502™). WS1 cell senescence was induced with 100 nM doxorubicin (24 h) and 12 days of recovery, while the senolytic activity was quantified after treatments with vehicle (DMSO), quercetin (Que, 20 μM), quercetin (20 μM) plus dasatinib (DAS, 200 nM; other positive control) or 18 distinct compounds according to the invention used at a concentration of 20 μM, alone (FIG. 1a) or in the presence of 200 nM dasatinib (FIG. 1b).
# [2] = test system: human intestinal epithelium cells HCT116; assay: Senolytic activity on doxorubicin-induced senescent HCT116 cells (crystal violet survival); details: senescent HCT116, 1-60 μM, 72 h (FIG. 2a)
# Method: as §1
# (§2) Senolytic activity on senescent human cells (in 96-well plates) was evaluated after specific treatments (for 72 h), including vehicle (DMSO; negative control), quercetin (Que; positive control) or different compounds according to the ‘invention bearing identification codes as fully illustrated also in patent application WO 2019/008537 A1, filed on May 7, 2017 in the name of Vera Salus Ricerca SrI (FIGS. 1, 2 and 3) from page 91 to page 106 and in the relative Figures. At the end of the treatments, cell survival was quantified by crystal violet staining. […] After further washing with water (3X), 100 μl of acetic acid (10%) were added per well and the absorbance (λ=590 nm) measured with a Synergy spectrophotometer (AHSI). […]
# [3] = test system: human renal epithelial cells 786-0; assay: Senolytic activity on doxorubicin-induced senescent 786-0 cells (crystal violet survival); details: senescent 786-0, 1-60 μM, 72 h (FIG. 2b)
# Method: as §1, §2
# [4] = test system: human pancreatic epithelial cells PANC-1; assay: Senolytic activity on doxorubicin-induced senescent PANC-1 cells (crystal violet survival); details: senescent PANC-1, 1-60 μM, 72 h (FIG. 3a)
# Method: as §1, §2
# [5] = test system: human hepatic epithelial cells HepG2; assay: Senolytic activity on doxorubicin-induced senescent HepG2 cells (crystal violet survival); details: senescent HepG2, 1-60 μM, 72 h (FIG. 3b)
# Method: as §1, §2
# [6] = test system: human lung epithelium cells A549; assay: Senolytic activity on doxorubicin-induced senescent A549 cells (crystal violet survival); details: senescent A549, 1-60 μM, 72 h (FIG. 3c)
# Method: as §1, §2
structure (smiles),measurement,setting,value
COc1ccc(-c2ccc(C(=O)NCCOCCOc3c(-c4ccc(O)c(O)c4)oc4cc(O)cc(O)c4c3=O)cc2)cc1 [29g],senolytic effect relative to that of quercetin,"[1]; senescent WS1, 20 μM alone vs quercetin 20 μM, 72 h (FIG. 1a)",~3 times
same,"senolytic effect in words, compared with the other compounds / treatments","[1]; senescent WS1, 20 μM alone, 72 h (FIG. 1a)",maximum senolytic effects; also recorded: higher senolytic effect than all the other compounds
same,senolytic effect of compound alone compared with the combination quercetin plus dasatinib,"[1]; senescent WS1, compound 20 μM alone vs quercetin 20 μM + dasatinib 200 nM, 72 h",greater than the combination of quercetin plus dasatinib
same,senolytic effect (% of senescent cells eliminated with respect to DMSO control),"[1]; senescent WS1, compound 20 μM alone, 72 h (FIG. 1a)",~60%
same,senolytic action compared with quercetin plus dasatinib,"[1]; senescent WS1, compound 20 μM in the presence of 200 nM dasatinib vs quercetin 20 μM + dasatinib 200 nM, 72 h (FIG. 1b)",more effective
same,senolytic activity compared with quercetin,[2],significantly higher than quercetin
same,senolytic activity compared with quercetin,[3],significantly higher than quercetin
same,senolytic activity compared with quercetin,[4],significantly higher than quercetin
same,senolytic activity compared with quercetin,[5],significantly higher than quercetin
same,senolytic activity compared with quercetin,[6],significantly higher than quercetin
